According to patent US10603357B2, “Therapeutic TREM-1 peptides” (Universite de Lorraine, priority 2004, dated 2020):

Tested on: BALB/c mice
Experiment: LPS-induced endotoxinemia in mice (Example 3)
Assay type: in vivo, mouse
Details: for Serum IL-1β / Serum TNF-α / Serum sTREM-1: endotoxemic mice, 100 μg
Procedure: P5 (50 μg or 100 μg) or control vector was administered 60 min before LPS.
P5 (75 μg) or control vector was administered 4 or 6 hours after LPS as indicated. […]
After approval by the local ethical committee, male Balb/C mice (20 to 23 g) were randomly grouped and treated with E. coli LPS intraperitoneally (i.p.) in combination with P5 (in 500 μl normal saline) or control vector before or after LPS challenge. In some experiments, 5 μg of an anti TREM-1 monoclonal antibody was administered i.p. one hour after LPS injection. The viability of mice was examined every hour, or animals were sacrificed at regular intervals. Serum samples were collected by cardiac puncture and assayed for TNF-α and IL-1β by ELISA (BD Biosciences), and for sTREM-1 levels by immunodot.

[1] = pre-treatment by 100 μg, 2 and 4 hours

In the case of LQVTDSGLYRCVIYHPP [P5], the “protection against LD100 dose of LPS, delayed treatment” value (75 μg, delayed up to 4 hours after LPS) is reported as “significant protection”, the “clinical appearance of treated mice” value (LD100 of LPS) is reported as “remained well groomed and active, had no diarrhoea, and were lively” and the “late death over one week” value (LD100 of LPS) is reported as “No late death occurred”. The “Serum IL-1β” value (H2) was 0.2 ± 0.1 ng/mL, the “Serum TNF-α” value (H2) was 2.4 ± 0.5 ng/mL and the “Serum sTREM-1” value (H2) was 475 ± 37 ng/mL. The “Serum IL-1β” value (H4) was 0.9 ± 0.2 ng/mL, the “Serum TNF-α” value (H4) was 0.1 ± 0.1 ng/mL and the “Serum sTREM-1” value (H4) was 243 ± 28 ng/mL. For the same sequence, the “increase of serum sTREM-1 levels compared to controls” value [1] was 2 fold, the “reduction of serum cytokines levels compared to controls” value [1] was 30% and the protection from death (single dose (50 μg or 100 μg) 60 min before LD100 of LPS) was “prevented from death in a dose-dependent manner”.
